Experiments:
Format in all cases: in vivo
Plasmopara viticola = assay: Plasmopara test (grapevines)/protective; details: Table B
Experimental: (§1) Solvent: 24.5 parts by weight of acetone
(§2) • 24.5 parts by weight of dimethylacetamide Emulsifier: 1 part by weight of alkylaryl polyglycol ether
(§3) To produce a suitable preparation of active compound, 1 part by weight of active compound is mixed with the stated amounts of solvent and emulsifier, and the concentrate is diluted with water to the desired concentration. To test for protective activity, young plants are sprayed with the preparation of active compound at the stated rate of application. After the spray coating has dried on, the plants are inoculated with an aqueous spore suspension of Plasmopara viticola and then remain for 1 day in an incubation cabinet at approximately 20° C. and a relative atmospheric humidity of 100%. The plant is subsequently placed for 4 days in a greenhouse at approximately 21° C. and a relative atmospheric humidity of approximately 90%. The plants are then misted and placed for 1 day in an incubation cabinet. The test is evaluated 6 days after the inoculation. 0% means an efficacy which corresponds to that of the control, while an efficacy of 100% means that no disease is observed.

Leptosphaeria nodorum = Leptosphaeria nodorum test (wheat)/preventive; details: Parastagonospora nodorum, 192 h, Table K, read-out: Efficacy in % found; for pest or weed control at 500 ppm: 500 ppm a.i.; for pest or weed control at 62.5 ppm: 62.5 ppm a.i.; for pest or weed control at 125 ppm: 125 ppm a.i.
Experimental: (§4) Solvent: 49 parts by weight of n,n-dimethylacetamid
(§5) Emulsifier: 1 part by weight of alkylaryl polyglycol ether
(§6) To produce a suitable preparation of active compound, 1 part by weight of active compound or active compound combination is mixed with the stated amounts of solvent and emulsifier, and the concentrate is diluted with water to the desired concentration. To test for preventive activity, young plants are sprayed with the preparation of active compound or active compound combination at the stated rate of application. After the spray coating has been dried, the plants are sprayed with a spore suspension of Leptosphaeria nodorum. The plants remain for 48 hours in an incubation cabinet at approximately 20° C. and a relative atmospheric humidity of approximately 100%. The plants are placed in the greenhouse at a temperature of approximately 22° C. and a relative atmospheric humidity of approximately 80%. The test is evaluated 8 days after the inoculation. 0% means an efficacy which corresponds to that of the untreated control, while an efficacy of 100% means that no disease is observed.

Septoria tritici = assay: Septoria tritici-test (wheat)/preventive; details: Table H; 62.5 ppm a.i.
Experimental: as §4, §5
as §6, with “suspension of Septoria tritici. The plants” for “suspension of Leptosphaeria nodorum. The plants”, “of approximately 100% and afterwards for 60 hours at approximately 15° C. in a translucent incubation cabinet at a relative atmospheric humidity of approximately 100%. The” for “of approximately 100%. The”, “of approximately 15° C. and” for “of approximately 22° C. and”, “is evaluated 21 days after” for “is evaluated 8 days after”

Venturia inaequalis = assay: Venturia test (apples)/protective; details: Table D
Experimental: as §1, §2
as §3, with “conidia” for “spore”, “the causal agent of apple scab (Venturia inaequalis)” for “Plasmopara viticola”, “plants are then” for “plant is subsequently”, “placed” for “placed for 4 days”, “The” for “The plants are then misted and placed for 1 day in an incubation cabinet. The”, “10” for “6”

Botrytis cinerea = assay: Botrytis test (beans)/protective; details: Table F; for pest or weed control at 25 ppm / Efficacy in % found: test 1
Experimental: as §1, §2
To produce a suitable preparation of active compound, 1 part by weight of active compound is mixed with the stated amounts of solvent and emulsifier, and the concentrate is diluted with water to the desired concentration. To test for protective activity, young plants are sprayed with the preparation of active compound. After the spray coating has dried on, 2 small pieces of agar covered with growth of Botrytis cinerea are placed on each leaf. The inoculated plants are placed in a darkened chamber at 20° C. and a relative atmospheric humidity of 100%. 2 days after the inoculation, the size of the lesions on the leaves is evaluated. 0% means an efficacy which corresponds to that of the control, while an efficacy of 100% means that no disease is observed.

Phytophthora infestans = assay: whole plant or invertebrate; details: Phytophthora infestans, 72 h; for pest or weed control at 1 ppm: read-out: Efficacy in % found, Table A, test 1, 1 ppm a.i.
Alternaria solani = assay: Alternaria test (tomatoes)/protective; details: Alternaria solani, 72 h, Table E, read-out: Efficacy in % found; for pest or weed control at 0.5 ppm / pest or weed control at 2 ppm: test 1; for pest or weed control at 0.5 ppm: 0.5 ppm a.i.; for pest or weed control at 2 ppm: 2 ppm a.i.
Experimental: as §1, §2
as §3, with “Alternaria solani. The plants are” for “Plasmopara viticola and”, “placed” for “remain for 1 day”, “The” for “The plant is subsequently placed for 4 days in a greenhouse at approximately 21° C. and a relative atmospheric humidity of approximately 90%. The plants are then misted and placed for 1 day in an incubation cabinet. The”, “3” for “6”, “control” for “control,”

Pyrenophora teres = assay: Pyrenophora teres-test (barley)/preventive
Experimental: as §4, §5
as §6, with “Pyrenophora teres.” for “Leptosphaeria nodorum.”, “20°” for “22°”

Sphaerotheca fuliginea = assay: Sphaerotheca test (cucumbers)/protective; details: Podosphaera fuliginea, 168 h, Table C, read-out: Efficacy in % found
Experimental: as §1, §2
To produce a suitable preparation of active compound, 1 part by weight of active compound is mixed with the stated amounts of solvent and emulsifier, and the concentrate is diluted with water to the desired concentration. To test for protect activity, young plants are sprayed with the preparation of active compound at the stated rate of application. After the spray coating has dried on, the plants are inoculated with an aqueous spore suspension of Sphaerotheca fuliginea. The plants are then placed in a greenhouse at approximately 23° C. and a relative atmospheric humidity of approximately 70%. The test is evaluated 7 days after the inoculation. 0% means an efficacy which corresponds to that of the control, while an efficacy of 100% means that no disease is observed.

[1] = Botrytis cinerea, 48 h, 25 ppm a.i., read-out: Efficacy in % found

Question: With `C#CCOc1ccc(CCNC(=O)C(OCC#C)c2ccc(Cl)cc2)cc1OC` (stereo not shown) [(9.5), mandipropamid] as the molecule, how does the “Efficacy in % found” value (Plasmopara viticola; 1 ppm a.i.) read?
Answer: The value was 57%.

Question: Which pest or weed control at 500 ppm (Leptosphaeria nodorum) does the source give for `O=[N+]([O-])c1cc(C(F)(F)F)c(Cl)c([N+](=O)[O-])c1Nc1ncc(C(F)(F)F)cc1Cl` [(14.2), fluazinam] here?
Answer: The pest or weed control at 500 ppm was 89%.

Question: `CC(C)C1C2CCC1c1c(NC(=O)c3cn(C)nc3C(F)F)cccc12` (stereo not shown) [(2.10), isopyrazam] was tested. Which “Efficacy in % found” value (Septoria tritici) did it give?
Answer: Its value is 80%.

Question: What about the “Efficacy in % found” value (Venturia inaequalis; test 1, 1 ppm a.i.) of the same molecule?
Answer: Its value is 28%.

Question: For `COC(=O)N(OC)c1ccccc1COc1ccn(-c2ccc(Cl)cc2)n1` [(3.13), pyraclostrobin], which pest or weed control at 62.5 ppm (Leptosphaeria nodorum) is on record?
Answer: Its pest or weed control at 62.5 ppm is 88%.

Question: What about the pest or weed control at 25 ppm (Botrytis cinerea; [1]) of the same molecule?
Answer: The pest or weed control at 25 ppm was 63%.

Question: And the pest or weed control at 1 ppm (Phytophthora infestans)?
Answer: Its pest or weed control at 1 ppm is 58%.

Question: What about the “Efficacy in % found” value (Venturia inaequalis; test 1, 0.5 ppm a.i.) of the same molecule?
Answer: Its value is 38%.

Question: And the pest or weed control at 0.5 ppm (Alternaria solani)?
Answer: Its pest or weed control at 0.5 ppm is 50%.

Question: For `Cn1cc(C(=O)Nc2ccc(F)cc2-c2ccc(Cl)c(Cl)c2)c(C(F)F)n1` [(2.2), bixafen], which “Efficacy in % found” value (Septoria tritici) is on record?
Answer: The value was 50%.

Question: And the “Efficacy in % found” value (Venturia inaequalis; test 2, 0.5 ppm a.i.)?
Answer: The value was 0%.

Question: `CON=C(C(=O)OC)c1ccccc1CON=C(C)c1cccc(C(F)(F)F)c1` [(3.17), trifloxystrobin] was tested. Which pest or weed control at 25 ppm (Botrytis cinerea; [1]) did it give?
Answer: The pest or weed control at 25 ppm was 40%.

Question: And the “Efficacy in % found” value (Venturia inaequalis; test 1, 0.5 ppm a.i.)?
Answer: Its value is 8%.

Question: What about the pest or weed control at 0.5 ppm (Alternaria solani) of the same molecule?
Answer: Its pest or weed control at 0.5 ppm is 30%.

Question: What does the source list for `O=C(NCCc1ncc(C(F)(F)F)cc1Cl)c1ccccc1C(F)(F)F` [(2.6), fluopyram]?
Answer: Efficacy in % found (Septoria tritici): 90%; Efficacy in % found (Venturia inaequalis; test 1, 1 ppm a.i.): 0%

Question: How did the “Efficacy in % found” value (Plasmopara viticola; 2 ppm a.i.) turn out when `CCC(C)(NC(=O)c1cc(Cl)c(C)c(Cl)c1)C(=O)CCl` (stereo not shown) [(4.9), zoxamide] was run?
Answer: Its value is 6%.

Question: And the pest or weed control at 1 ppm (Phytophthora infestans)?
Answer: The pest or weed control at 1 ppm was 58%.

Question: `Cn1cc(C(=O)Nc2ccccc2C2CC2C2CC2)c(C(F)F)n1` (stereo not shown) [(2.21), sedaxane] was tested. Which “Efficacy in % found” value (Botrytis cinerea; 25 ppm a.i.) did it give?
Answer: The value was 30%.

Question: What about the “Efficacy in % found” value (Venturia inaequalis; test 1, 1 ppm a.i.) of the same molecule?
Answer: The value was 24%.

Question: And the “Efficacy in % found” value (Pyrenophora teres; Table I1, 125 ppm a.i.)?
Answer: Its value is 50%.

Question: `Cc1cc(C2CC2)nc(Nc2ccccc2)n1` [(7.3), cyprodinyl] was tested. Which pest or weed control at 10 ppm (Botrytis cinerea; Botrytis cinerea, 48 h, test 2, 10 ppm a.i., read-out: Efficacy in % found) did it give?
Answer: The pest or weed control at 10 ppm was 0%.

Question: And the “Efficacy in % found” value (Pyrenophora teres; Table I1, 125 ppm a.i.)?
Answer: The value was 67%.

Question: For `CO/N=C(/C(=O)OC)c1ccccc1COc1ccccc1C` [(3.9), kresoxim-methyl], which pest or weed control at 2.5 ppm (Botrytis cinerea; Botrytis cinerea, 48 h, test 3, 2.5 ppm a.i., read-out: Efficacy in % found) is on record?
Answer: The pest or weed control at 2.5 ppm was 75%.

Question: What about the pest or weed control at 5 ppm (Sphaerotheca fuliginea; test 4, 5 ppm a.i.) of the same molecule?
Answer: The pest or weed control at 5 ppm was 52%.

Question: What about the “Efficacy in % found” value (Pyrenophora teres; Table I2, 62.5 ppm a.i.) of the same molecule?
Answer: The value was 67%.

Question: And the pest or weed control at 2.5 ppm (Alternaria solani; test 2, 2.5 ppm a.i.)?
Answer: Its pest or weed control at 2.5 ppm is 50%.

Question: Which results are given for `CC(C)(C)C(O)(CCc1ccc(Cl)cc1)Cn1cncn1` (stereo not shown) [(1.47), tebuconazole]?
Answer: pest or weed control at 125 ppm (Leptosphaeria nodorum): 88%; pest or weed control at 25 ppm (Botrytis cinerea; [1]): 4%; pest or weed control at 2 ppm (Sphaerotheca fuliginea; test 1, 2 ppm a.i.): 50%; pest or weed control at 2 ppm (Alternaria solani): 35%

Question: What does the source list for `O=C(Nc1ccccc1-c1ccc(Cl)cc1)c1cccnc1Cl` [(2.3), boscalid]?
Answer: pest or weed control at 25 ppm (Botrytis cinerea; [1]): 50%; Efficacy in % found (Venturia inaequalis; test 1, 5 ppm a.i.): 0%; Efficacy in % found (Pyrenophora teres; Table I1, 62.5 ppm a.i.): 50%

Question: `CN(C)C(=S)SSC(=S)N(C)C` [(5.25), thiram] was tested. Which pest or weed control at 500 ppm (Leptosphaeria nodorum) did it give?
Answer: Its pest or weed control at 500 ppm is 33%.

Question: For `CO/N=C(/C1=NOCCO1)c1ccccc1Oc1ncnc(Oc2ccccc2Cl)c1F` [(3.8), fluoxastrobin], which pest or weed control at 62.5 ppm (Leptosphaeria nodorum) is on record?
Answer: The pest or weed control at 62.5 ppm was 63%.

Question: And the pest or weed control at 25 ppm (Botrytis cinerea; [1])?
Answer: The pest or weed control at 25 ppm was 8%.

Question: What about the pest or weed control at 1 ppm (Phytophthora infestans) of the same molecule?
Answer: Its pest or weed control at 1 ppm is 30%.

Question: What about the pest or weed control at 0.5 ppm (Alternaria solani) of the same molecule?
Answer: The pest or weed control at 0.5 ppm was 40%.

Question: For `Cc1ccc(-c2c(Cl)nc(C#N)n2S(=O)(=O)N(C)C)cc1` [(3.3), cyazofamid], which “Efficacy in % found” value (Plasmopara viticola; 1 ppm a.i.) is on record?
Answer: The value was 0%.

Question: With `Cc1nn(C)c(F)c1C(=O)Nc1ccccc1C(C)CC(C)C` (stereo not shown) [(2.19), penflufen] as the molecule, how does the “Efficacy in % found” value (Septoria tritici) read?
Answer: Its value is 50%.

Question: What about the “Efficacy in % found” value (Botrytis cinerea; 50 ppm a.i.) of the same molecule?
Answer: Its value is 65%.

Question: And the “Efficacy in % found” value (Venturia inaequalis; test 1, 1 ppm a.i.)?
Answer: Its value is 0%.

Question: What does the source list for `OC(Cc1ccccc1Cl)(Cn1nc[nH]c1=S)C1(Cl)CC1` (stereo not shown) [(1.41), prothioconazole]?
Answer: pest or weed control at 125 ppm (Leptosphaeria nodorum): 88%; pest or weed control at 25 ppm (Botrytis cinerea; [1]): 49%; pest or weed control at 0.5 ppm (Sphaerotheca fuliginea; test 1, 0.5 ppm a.i.): 37%; pest or weed control at 2 ppm (Alternaria solani): 30%

Question: `C[C@@]1(c2ccc(Oc3ccccc3)cc2)OC(=O)N(Nc2ccccc2)C1=O` (racemic) [(3.6), famoxadone] was tested. Which pest or weed control at 500 ppm (Leptosphaeria nodorum) did it give?
Answer: Its pest or weed control at 500 ppm is 67%.

Question: And the pest or weed control at 2.5 ppm (Phytophthora infestans; read-out: Efficacy in % found, Table A, test 7, 2.5 ppm a.i.)?
Answer: Its pest or weed control at 2.5 ppm is 31%.

Reference: patent US9006139B2, “Active compound combinations” (Bayer Intellectual Property GmbH, priority 2009, dated 2015)
